Laboratory results as given in US12383497B2, “Ready-to-use phenylephrine formulations and products” (INFORLIFE SA, priority 2023, dated 2025).
Counter-ions that a name gives are not always drawn.

Test: Effect of autoclaving (terminal sterilization) on the product
Format: physicochemical
Experimental: Batches of the phenylephrine composition of the present disclosure formulated as in Table 1 were manufactured for the study of the effect of autoclaving on product behavior by autoclaving at a target temperature T=121° C.±1° C. and time at different FOs according to USP <1222>, which is incorporated fully herein by reference.
The table below show the Critical Quality Attributes of the drug product. The objective of this study was to evaluate the quality of the proposed manufacturing process to determine whether the manufacturing process will endure the desired final product study.
The table below show the results of the autoclaving study using several batches of the phenylephrine hydrochloride product formulation of the disclosure, containing 0.08 mg/ml of phenylephrine HCL.

effect of terminal sterilization by autoclaving: caused degradation
Compound: CNC[C@H](O)c1cccc(O)c1 [phenylephrine, benzene methanol, 3-hydroxy-α [(methyl amino)methyl]-hydrochloride (R)]
